Test [1] concerns the target T1, S1P1 (Homo sapiens (Human), UniProt P21453). As to the kind of experiment: S1P1 Binding Assay (33P-S1P ligand competition, CHO membranes). Conditions: membranes from CHO cells expressing human S1P1. The method, then: Membranes were prepared from CHO cells expressing human S1P1. Cells pellets (1×10^9 cells/pellet) were suspended in buffer containing 20 mM HEPES (4-(2-hydroxyethyl)-1-piperazineethanesulfonic acid), pH 7.5, 50 mM NaCl, 2 mM EDTA (ethylenediamine tetraacetic acid) and Protease Inhibitor cocktail (Roche), and disrupted on ice using the Polytron homogenizer. The homogenate was centrifuged at 20,000 rpm (48,000 g) and the supernatant was discarded. The membrane pellets were resuspended in buffer containing 50 mM HEPES, pH 7.5, 100 mM NaCl, 1 mM MgCl2, 2 mM EDTA and stored in aliquots at −80° C. after protein concentration determination.
Membranes (2 μg/well) and 0.03 nM final concentration of ^33P-S1P ligand (1 mCi/ml, Perkin Elmer or American Radiolabeled Chemicals) diluted in assay buffer (50 mM HEPES, pH7.4, 5 mM MgCl2, 1 mM CaCl2), 0.5% fatty acid free BSA (bovine serum albumin), 1 mM NaF) were added to the compound plates (384 Falcon v-bottom plate (0.5 μl/well in a 11 point, 3-fold dilution). Binding was performed for 45 minutes at room temperature, terminated by collecting the membranes onto 384-well Millipore FB filter plates, and radioactivity was measured by TOPCOUNT®. The competition data of the test compounds over a range of concentrations was plotted as percentage inhibition of radioligand specific binding. The IC50 is defined as the concentration of competing ligand needed to reduce specific binding by 50%.

Another test has as its target S1P3 (Homo sapiens (Human), UniProt Q99500). As to the kind of experiment: Receptor [35S] GTPγS Binding Assay, S1P3. The class given is biochemical. Conditions: membranes from EDG3-Gal5-bla HEK293T cells. The method, then:
(§1) Receptor [^35S] GTPγS Binding Assays:
(§2) Compounds were loaded in a 384 Falcon v-bottom plate (0.5 μl/well in an 11 point, 3-fold dilution). Membranes prepared from S1P1/CHO cells or EDG3-Gal5-bla HEK293T cells (EDG3 equivalent S1P3) were added to the compound plate ([…], final protein 3 μg/well) with MULTIDROP®. [^35S]GTP (1250 Ci/mmol, Perkin Elmer) was diluted in assay buffer: 20 mM HEPES, pH7.5, 10 mM MgCl2, 150 mM NaCl, 1 mM EGTA (ethylene glycol tetraacetic acid), 1 mM DTT (Dithiothreitol), 10 μM GDP, 0.1% fatty acid free BSA, and 10 μg/ml Saponin to 0.4 nM. 40 μl of the [35S] GTP solution was added to the compound plate with a final concentration of 0.2 nM. The reaction was kept at room temperature for 45 min. At the end of incubation, all the mixtures in the compound plate were transferred to Millipore 384-well FB filter plates via the VELOCITY11 ® Vprep liquid handler. The filter plate was washed with water 4 times by using the manifold Embla plate washer and dried at 60° C. for 45 min. MicroScint 20 scintillation fluid (30 μl) was added to each well for counting on the Packard TOPCOUNT®. EC50 is defined as the agonist concentration that corresponds to 50% of the Ymax (maximal response) obtained for each individual compound tested.
For orientation: GTPγS is a poorly hydrolysed GTP analogue; its binding reports G protein activation.

Test [2] deals with T1, S1P1. The test is described as follows: Receptor [35S] GTPγS Binding Assay, S1P1. The class given is biochemical. Conditions: membranes from S1P1/CHO cells. As to the method: as §1, §2
A smaller value for GTPγS S1P1 EC50 value indicated greater activity for the compound in the GTPγS S1P1 binding assay. Thus the compounds of the present invention may be used in treating, preventing, or curing various S1P1 receptor-related conditions. The compounds have potential use in treating, preventing, or curing autoimmune and inflammatory diseases such as multiple sclerosis, rheumatoid arthritis, inflammatory bowel disease, lupus, psoriasis, or minimizing or reducing rejection of transplanted organs.

Chain of S1P3 (Q99500 whole entry): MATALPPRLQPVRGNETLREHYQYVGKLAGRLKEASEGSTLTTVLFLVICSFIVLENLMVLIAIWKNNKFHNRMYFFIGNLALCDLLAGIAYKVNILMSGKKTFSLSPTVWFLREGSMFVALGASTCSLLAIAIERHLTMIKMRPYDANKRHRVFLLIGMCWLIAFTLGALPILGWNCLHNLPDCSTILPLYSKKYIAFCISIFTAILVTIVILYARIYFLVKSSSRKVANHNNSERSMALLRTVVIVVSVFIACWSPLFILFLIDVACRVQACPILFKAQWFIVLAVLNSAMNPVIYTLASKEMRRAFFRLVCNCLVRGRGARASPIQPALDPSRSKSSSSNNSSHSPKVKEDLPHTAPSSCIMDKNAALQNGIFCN
T1 sequence (P21453 whole entry): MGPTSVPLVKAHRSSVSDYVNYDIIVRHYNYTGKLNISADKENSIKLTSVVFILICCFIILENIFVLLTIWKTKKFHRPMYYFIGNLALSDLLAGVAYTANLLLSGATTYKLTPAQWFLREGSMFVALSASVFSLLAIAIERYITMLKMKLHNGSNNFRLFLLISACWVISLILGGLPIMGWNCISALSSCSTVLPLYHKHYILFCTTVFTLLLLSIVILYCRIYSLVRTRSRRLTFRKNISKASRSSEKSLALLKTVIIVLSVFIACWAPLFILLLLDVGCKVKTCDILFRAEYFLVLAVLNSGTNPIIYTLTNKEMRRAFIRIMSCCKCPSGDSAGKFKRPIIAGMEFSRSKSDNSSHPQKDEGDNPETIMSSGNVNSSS

On S1P1 [1], `C/C(=N\OCCCc1ccccc1)c1ccc([C@@H]2CC[C@](N)(COP(=O)(O)O)C2)cc1` [Example 41, ((1R,3R)-1-amino-3-(4-((E)-1-((3-phenylpropoxy)imino)ethyl)phenyl)cyclopentyl) methyl dihydrogen phosphate] had an IC50 of 20 nM. Further, the EC50 on S1P3 amounted to 773 nM; on S1P1 [2] it was 25.3 nM.
The matching figures for `CC(=NOCC1CCCCC1)c1ccc([C@@H]2CC[C@](N)(COP(=O)(O)O)C2)cc1` [Example 44]: 15.1 nM, over 60000 nM and 20.3 nM.
Taken in the same sequence, the figures for `CC(=NOCc1ccc(C(F)(F)F)cc1)c1ccc([C@@H]2CC[C@](N)(COP(=O)(O)O)C2)cc1` [Example 45, ((1R,3R)-1-amino-3-(4-(1-(((4-(trifluoromethyl)benzyl)oxy)imino)ethyl)phenyl)cyclopentyl)methyl dihydrogen phosphate] were 2.7 nM, over 60000 nM and 5.6 nM.
For the molecule `CC(=NOCCOc1ccccc1)c1ccc([C@@H]2CC[C@](N)(COP(=O)(O)O)C2)cc1` [Example 46, ((1R,3R)-1-amino-3-(4-(1-((2-phenoxyethoxy)imino)ethyl)phenyl)cyclopentyl) methyl dihydrogen phosphate], at S1P1 [1], the IC50 was determined as 5.2 nM. The figures for the 50% effective concentration (EC50) on S1P3 and on S1P1 [2] were over 60000 nM and 11.2 nM, respectively.
The molecule `COc1cccc(CO/N=C(\C)c2ccc([C@@H]3CC[C@](N)(COP(=O)(O)O)C3)cc2)c1` [Example 50, ((1R,3R)-1-amino-3-(4-((E)-1-(((3-methoxybenzyl)oxy)imino)ethyl)phenyl)cyclopentyl) methyl dihydrogen phosphate] came in with an IC50 at S1P1 [1] of 563 nM. Further, the EC50 on S1P3 was over 60000 nM; at S1P1 [2], 630 nM.
Taken in the same sequence, the figures for `CC(=NOCCCc1ccccc1)c1ccc([C@H]2CC[C@](N)(COP(=O)(O)O)C2)cc1` [Example 52] were 31.9 nM, over 30000 nM and 1.1 nM.
The matching figures for `C/C(=N\OCCCc1ccccc1)c1ccc(C(=O)N2CCC(N)(COP(=O)(O)O)CC2)cc1` [Example 57, (4-amino-1-(4-(1-((3-phenylpropoxy)imino)ethyl)benzoyl)piperidin-4-yl)methyl dihydrogen phosphate]: 1870 nM, over 60000 nM and 324 nM.
The matching figures for `C/C(=N\OCc1ccc(C2CCCCC2)c(C(F)(F)F)c1)c1ccc(C(=O)N2CCC(N)(COP(=O)(O)O)CC2)cc1` [Example 58, (E)-(4-amino-1-(4-(1-(((4-cyclohexyl-3-(trifluoromethyl)benzyl)oxy)imino)ethyl)benzoyl)piperidin-4-yl)methyl dihydrogen phosphate]: 10.7 nM, over 3120 nM and 60.8 nM.
`NC1(COP(=O)(O)O)CCN(C(=O)c2ccc(/C(=N/OCCCc3ccccc3)C(F)(F)F)cc2)C1` (stereo not drawn) [Example 65, (Z)-(3-amino-1-(4-(2,2,2-trifluoro-1-((3-phenylpropoxy)imino)ethyl)benzoyl)pyrrolidin-3-yl)methyl dihydrogen phosphate] showed an IC50 at S1P1 [1] of 1990 nM. Also, the EC50 was over 6250 nM on S1P3 and 626 nM on S1P1 [2].
The matching figures for `C/C(=N\OCc1ccc(C2CCCCC2)c(C(F)(F)F)c1)c1ccc(S(=O)(=O)N2CCC(N)(COP(=O)(O)O)CC2)cc1` [Example 70, (E)-(4-amino-1-((4-(1-(((4-cyclohexyl-3-(trifluoromethyl)benzyl)oxy)imino)ethyl)phenyl)sulfonyl)piperidin-4-yl) methyl dihydrogen phosphate]: 918 nM, over 18000 nM and 406 nM.
The molecule `C/C(=N\OCCCc1ccccc1)c1ccc(S(=O)(=O)N2CCC(N)(COP(=O)(O)O)CC2)cc1` [Example 71, (E)-(4-amino-1-((4-(1-((3-phenylpropoxy)imino)ethyl)phenyl)sulfonyl)piperidin-4-yl)methyl dihydrogen phosphate] yielded an IC50 at S1P1 [1] of 219 nM. The EC50 at S1P3 was over 18000 nM; at S1P1 [2] it was 242 nM.

The term IC50 denotes the concentration that gives 50% inhibition. Low readings indicate inhibition by little substance, high ones a need for much substance. For orientation: EC50 means the concentration needed to bring the measured effect to its halfway point. A high value points to a need for much substance.
